A word on the pEC50: it is the negative decadic logarithm of the EC50, by convention in mol/L. One may read the solubility as how much of the substance goes into solution per volume. High values mean a readily soluble substance, low ones a poorly soluble substance.

One data set concerns the target T1, human mGluR2 (Homo sapiens, UniProt Q14416).
T1 construct: expressed in transfected cells; host or cells: CHO cells, stably transfected; membranes
In words: [35S]-GTPγS binding assay, allosteric activator activity with CHO cell membranes. In kind it is biochemical. The following applies: membranes of CHO cells expressing human mGluR2, 1 μM glutamate; read-out: GTPgS EC50. A general note: GTPγS is a poorly hydrolysed GTP analogue; its binding reports G protein activation.

The nature of data set [1]: Aqueous solubility in pH 7.4 phosphate buffer. To be noted: thermodynamic from solid, equilibration 24 h at 25° C. It is filed as physicochemical. As for the experimental part: Solubility was determined in pH 7.4 phosphate buffer after equilibration for 24 h at 25° C. and HPLC-UV and LC-MSMS were used for quantitation.
A further data set addresses hERG ion channel (Homo sapiens, UniProt Q12809). In words: hERG activity (process of Bridgland-Taylor et al.). In kind it is cell-based. Here is the method:
hERG activity was assessed using the process described by Bridgland-Taylor, M. H., et al, J. Pharm. Tox. Methods 54 (2006) 189-199.
(In general: Block of hERG is tested as a sign of cardiac risk.)

SMILES strings stand for the structures. pEC50: −log10 of the molar value. Values after ≈ are worked out from the molar mass of the structure shown. Where only a bound is given, the exact number is not on record here.

T1 sequence (Q14416 19-872): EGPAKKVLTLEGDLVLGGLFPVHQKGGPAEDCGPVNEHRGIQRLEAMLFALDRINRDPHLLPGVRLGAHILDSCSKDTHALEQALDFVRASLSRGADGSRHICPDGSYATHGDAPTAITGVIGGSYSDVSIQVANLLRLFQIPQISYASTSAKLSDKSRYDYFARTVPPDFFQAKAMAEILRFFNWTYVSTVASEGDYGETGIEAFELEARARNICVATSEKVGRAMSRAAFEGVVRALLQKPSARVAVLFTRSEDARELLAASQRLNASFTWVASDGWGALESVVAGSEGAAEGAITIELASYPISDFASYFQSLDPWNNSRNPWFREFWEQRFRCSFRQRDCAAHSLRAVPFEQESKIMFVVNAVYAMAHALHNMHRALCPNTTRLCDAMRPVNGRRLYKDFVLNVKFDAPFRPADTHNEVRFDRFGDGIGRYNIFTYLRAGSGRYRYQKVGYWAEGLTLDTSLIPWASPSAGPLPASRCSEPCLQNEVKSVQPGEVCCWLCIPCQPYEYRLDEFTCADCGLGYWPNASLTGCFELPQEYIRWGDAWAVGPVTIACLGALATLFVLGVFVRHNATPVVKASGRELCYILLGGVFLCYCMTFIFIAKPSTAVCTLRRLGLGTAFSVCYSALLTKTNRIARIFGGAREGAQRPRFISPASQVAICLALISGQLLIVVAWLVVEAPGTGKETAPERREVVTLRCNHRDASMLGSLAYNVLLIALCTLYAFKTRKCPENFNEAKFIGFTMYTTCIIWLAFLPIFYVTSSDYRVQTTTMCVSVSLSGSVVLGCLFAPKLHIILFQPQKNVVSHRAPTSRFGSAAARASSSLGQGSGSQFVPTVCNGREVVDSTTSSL
hERG ion channel, sequence (Q12809 whole entry): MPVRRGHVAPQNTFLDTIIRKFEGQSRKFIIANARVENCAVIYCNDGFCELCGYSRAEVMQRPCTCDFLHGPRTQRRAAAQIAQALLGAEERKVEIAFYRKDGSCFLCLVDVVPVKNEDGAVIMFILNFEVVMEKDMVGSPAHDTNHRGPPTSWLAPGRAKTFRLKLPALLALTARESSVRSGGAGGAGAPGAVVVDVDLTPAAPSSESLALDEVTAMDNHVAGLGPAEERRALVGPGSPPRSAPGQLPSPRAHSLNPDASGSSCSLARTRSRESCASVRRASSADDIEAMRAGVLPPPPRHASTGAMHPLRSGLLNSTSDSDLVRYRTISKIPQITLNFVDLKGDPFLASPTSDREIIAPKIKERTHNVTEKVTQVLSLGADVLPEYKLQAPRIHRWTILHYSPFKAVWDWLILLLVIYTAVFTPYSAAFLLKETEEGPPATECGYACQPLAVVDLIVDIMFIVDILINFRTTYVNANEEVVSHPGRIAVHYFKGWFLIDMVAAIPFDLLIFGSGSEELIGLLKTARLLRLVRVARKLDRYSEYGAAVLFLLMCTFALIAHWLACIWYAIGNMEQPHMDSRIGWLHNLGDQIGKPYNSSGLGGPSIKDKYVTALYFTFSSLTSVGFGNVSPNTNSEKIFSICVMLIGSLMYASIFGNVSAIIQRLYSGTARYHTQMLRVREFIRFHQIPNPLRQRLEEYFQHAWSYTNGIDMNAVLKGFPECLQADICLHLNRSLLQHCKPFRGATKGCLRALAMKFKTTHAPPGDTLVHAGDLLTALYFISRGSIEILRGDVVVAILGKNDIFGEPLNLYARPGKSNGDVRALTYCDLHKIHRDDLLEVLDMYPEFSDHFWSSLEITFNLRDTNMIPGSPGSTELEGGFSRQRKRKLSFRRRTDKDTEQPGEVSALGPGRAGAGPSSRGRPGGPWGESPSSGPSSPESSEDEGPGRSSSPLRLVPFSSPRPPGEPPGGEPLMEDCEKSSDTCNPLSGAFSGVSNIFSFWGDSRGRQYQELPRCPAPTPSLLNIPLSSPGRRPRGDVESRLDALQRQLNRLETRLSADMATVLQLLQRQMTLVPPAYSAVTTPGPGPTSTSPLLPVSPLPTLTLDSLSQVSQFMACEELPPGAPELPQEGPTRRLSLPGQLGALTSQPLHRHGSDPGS
Procedure for human mGluR2: A [^35S]-GTPγS binding assay was used to functionally assay mGluR2 receptor activation. The allosteric activator activity of compounds at the human mGluR2 receptor were measured using a [^35S]-GTPγS binding assay with membranes prepared from CHO cells which stably express the human mGluR2. The assay is based upon the principle that agonists bind to G-protein coupled receptors to stimulate GDP-GTP exchange at the G-protein. Since [^35S]-GTPγS is a non-hydrolyzable GTP analog, it can be used to provide an index of GDP-GTP exchange and, thus, receptor activation. The GTPγS binding assay therefore provides a quantitative measure of receptor activation.
Membranes were prepared from CHO cells stably transfected with human mGluR2. Membranes (30 μg protein) were incubated with test compound (3 nM to 300 μM) for 15 minutes at room temperature prior to the addition of 1 μM glutamate, and incubated for 30 min at 30° C. in 500 μl assay buffer (20 mM HEPES, 100 mM NaCl, 10 mM MgCl2), containing 30 μM GDP and 0.1 nM [^35S]-GTPγS (1250 Ci/mmol). Reactions were carried out in triplicate in 2 ml polypropylene 96-well plates. Reactions were terminated by vacuum filtration using a Packard 96-well harvester and Unifilter-96, GF/B filter microplates. The filter plates were washed 4×1.5 ml with ice-cold wash buffer (10 mM sodium phosphate buffer, pH 7.4). The filter plates were dried and 35 μl of scintillation fluid (Microscint 20) was added to each well. The amount of radioactivity bound was determined by counting plates on the Packard TopCount. Data was analyzed using GraphPad Prism, and EC50 and Emax values (relative to the maximum glutamate effect) were calculated using non-linear regression.

Consider `Cc1cc(-c2nc(CN3CCNC(C)C3)no2)cc2c1C(=O)N(Cc1ccc(Cl)cc1)C2` (centres unmarked) [Example 3, 2-(4-Chloro-benzyl)-7-methyl-5-[3-(3-methyl-piperazin-1-ylmethyl)-[1,2,4]oxadiazol-5-yl]-2,3-dihydro-isoindol-1-one], for which, at human mGluR2, the pEC50 was 6.81. This molecule also yielded a solubility at 24 h in data set [1] of 396 µM (≈ 179 µg/mL). At hERG ion channel, this molecule registered a hERG of 12.0 µM.

Take `Cc1cc(-c2nc(CN3C[C@@H]4C[C@H]3CN4)no2)cc2c1C(=O)N(Cc1ccc(Cl)cc1)C2` [Example 2, 2-(4-Chloro-benzyl)-5-[3-(2,5-diaza-bicyclo[2.2.1]hept-2-ylmethyl)-[1,2,4]oxadiazol-5-yl]-7-methyl-2,3-dihydro-isoindol-1-one]: at human mGluR2, the pEC50 is 6.69. The solubility at 24 h in data set [1] was found to be 336 µM (≈ 151 µg/mL). The same molecule returned a hERG at hERG ion channel of 33.0 µM.

In the case of `Cc1cc(-c2nc(CN3CCNCC3)no2)cc2c1C(=O)N(Cc1ccc(OC(F)(F)F)cc1)C2` [Example 1, 7-Methyl-5-(3-piperazin-1-ylmethyl-[1,2,4]oxadiazol-5-yl)-2-(4-trifluoromethoxybenzyl)-2,3-dihydroisoindol-1-one], the concentration in solution in data set [1] (solubility at 24 h) was 44.9 µM (≈ 21.9 µg/mL). The same molecule yielded a hERG at hERG ion channel of 11.0 µM.

As for `Cc1cc(-c2nc(CN3CCNCC3)no2)cc2c1C(=O)N(Cc1ccc(Cl)cc1)C2` [Example 4, 2-(4-Chloro-benzyl)-7-methyl-5-(3-piperazin-1-ylmethyl-[1,2,4]oxadiazol-5-yl)-2,3-dihydro-isoindol-1-one], at human mGluR2, the pEC50 was 6.42. This molecule displayed a solubility at 24 h in data set [1] of over 500 µM. At hERG ion channel, this molecule returned a hERG of 25.0 µM.

In the case of `Cc1cc(-c2nc(CN3CCNC[C@@H]3C)no2)cc2c1C(=O)N(Cc1ccc(Cl)cc1)C2` [Example 5, 2-(4-Chloro-benzyl)-7-methyl-5-[3-(2-methyl-piperazin-1-ylmethyl)-[1,2,4]oxadiazol-5-yl]-2,3-dihydro-isoindol-1-one], the pEC50 at human mGluR2 is 6.45. This molecule also showed a solubility at 24 h in data set [1] of 384 µM (≈ 174 µg/mL). On hERG ion channel, this molecule registered a hERG of 12.6 µM.

Consider `Cc1cc(-c2nc(CN3CCNC[C@H]3C)no2)cc2c1C(=O)N(Cc1ccc(Cl)cc1)C2` [Example 6, 2-(4-Chloro-benzyl)-7-methyl-5-[3-(2-methyl-piperazin-1-ylmethyl)-[1,2,4]oxadiazol-5-yl]-2,3-dihydro-isoindol-1-one], for which the negative-log EC50 (pEC50) on human mGluR2 was 6.50. Besides, in data set [1], the solubility at 24 h is over 500 µM. Further, the hERG at hERG ion channel came out at 18.7 µM.

The values above are taken from patent US8377939B2, “Oxadiazole derivatives and their use as metabotropic glutamate receptor potentiators 842” (AstraZeneca AB, priority 2007, dated 2013).
